From patent US4271193A, “N1-Benzoyl-N2-phenyldiaminopropanols and pharmaceutical compositions thereof, and processes for their preparation” (Kali-Chemie Pharma GmbH, priority 1978, dated 1981)

How the values were obtained:
[1] = Acute 7-day toxicity after single application per os; conditions: mouse, in vivo, po, white NMRI-mice, not fed
Experimental: The acute 7-day toxicity is determined after a single application per os in white NMRI-mice which had not been fed. The calculation of the LD50 is carried out by probitananalysis by means of electronic data processing (see L. Cavalli-Sforza, Gustav Fischer-Verlag, Stuttgart (1964), Grundbegriffe der Biometrie, p. 153).

stomach epithelium cells = test: Inhibition of acetylsalicylic acid-induced loss of stomach epithelium cells; format: in vivo; conditions: Rattus norvegicus; narcotized male SIV50 rats; acetylsalicylic acid as irritant; 3 times 300 mg/kg test compound orally beforehand; read-out: % reduction of loss of epithelium cells in the stomach
Experimental: 2. Inhibition of loss of stomach epithelium cells
The test compound is orally administered to narcotized male rats of the breed SIV50 prior to the beginning of the test. […] In order to determine the induced total loss of cells in the rats stomach, acetylsalicylic acid is administered to animals without prior administration of a protective compound.
In order to prepare the animals for the determination, the trachea is laid free and a tube introduced therein. Subsequently, a laparotomy in the medial part, displacement of the stomach and introducing and fixing of a vein-catheter for recovering stomach juices are effected. By means of the introduced vein-catheter, stomach juice is recovered and then is centrifuged and microscopically analyzed.
The percent reduction of loss of cells induced by the acetylsalicylic acid after previous administration of 3 times 300 mg/kg of the test compound is determined.

SMILES: COc1cc(C(=O)NCC(O)CN(C)c2ccc(F)cc2)cc(OC)c1OC (stereo not drawn) [A]
- LD50 at 168 h [1]: 5010 mg/kg
- inhibition in vivo at 300 mg/kg (stomach epithelium cells): 53%

SMILES: COc1cc(C(=O)NCC(O)CN(C)c2ccc(Cl)cc2)cc(OC)c1OC (stereo not drawn) [B]
- LD50 at 168 h [1]: > 5000 mg/kg
- inhibition in vivo at 300 mg/kg (stomach epithelium cells): 77%

SMILES: COc1cc(C(=O)NCC(O)CN(C)c2ccc(C(F)(F)F)cc2)cc(OC)c1OC (stereo not drawn) [C]
- LD50 at 168 h [1]: > 1390 mg/kg
- inhibition in vivo at 300 mg/kg (stomach epithelium cells): 47.8%

SMILES: COc1cc(C(=O)NCC(O)CN(C)c2ccc(C)cc2)cc(OC)c1OC (stereo not drawn) [D]
- LD50 at 168 h [1]: > 3160 mg/kg
- inhibition in vivo at 300 mg/kg (stomach epithelium cells): 47.8%

SMILES: CCN(CC(O)CNC(=O)c1cc(OC)c(OC)c(OC)c1)c1ccc(F)cc1 (stereo not drawn) [E]
- LD50 at 168 h [1]: > 1280 mg/kg
- inhibition in vivo at 300 mg/kg (stomach epithelium cells): 43%

SMILES: COc1cc(C(=O)NCC(O)CNc2c(C)cc(C)cc2C)cc(OC)c1OC (stereo not drawn) [F]
- LD50 at 168 h [1]: > 1270 mg/kg
- inhibition in vivo at 300 mg/kg (stomach epithelium cells): 28.4%

SMILES: CCOc1cc(C(=O)NCC(O)CN(C)c2ccc(F)cc2)cc(OCC)c1OCC (stereo not drawn) [G]
- LD50 at 168 h [1]: > 1370 mg/kg
- inhibition in vivo at 300 mg/kg (stomach epithelium cells): 63%

SMILES: COc1ccc(C(=O)NCC(O)CN(C)c2ccc(F)cc2)c2c1OCCO2 (stereo not drawn) [H]
- LD50 at 168 h [1]: > 1230 mg/kg
- inhibition in vivo at 300 mg/kg (stomach epithelium cells): 48.6%

SMILES: CCCCOc1c(OC)cc(C(=O)NCC(O)CN(C)c2ccc(F)cc2)cc1OC (stereo not drawn) [I]
- LD50 at 168 h [1]: > 1370 mg/kg
- inhibition in vivo at 300 mg/kg (stomach epithelium cells): 27.2%
